The source of these data is ChEMBL document CHEMBL3396977, “Design, synthesis and docking study of novel tetracyclic oxindole derivatives as α-glucosidase inhibitors” (Bioorg Med Chem Lett, 2015).

Activity calls are given as the source filed them. No cut-off for these calls is given here.

Usually IC50 stands for the concentration needed to halve the response being measured.

Sequence of Oligo-1,6-glucosidase IMA1 (Saccharomyces cerevisiae S288c) (P53051 whole entry): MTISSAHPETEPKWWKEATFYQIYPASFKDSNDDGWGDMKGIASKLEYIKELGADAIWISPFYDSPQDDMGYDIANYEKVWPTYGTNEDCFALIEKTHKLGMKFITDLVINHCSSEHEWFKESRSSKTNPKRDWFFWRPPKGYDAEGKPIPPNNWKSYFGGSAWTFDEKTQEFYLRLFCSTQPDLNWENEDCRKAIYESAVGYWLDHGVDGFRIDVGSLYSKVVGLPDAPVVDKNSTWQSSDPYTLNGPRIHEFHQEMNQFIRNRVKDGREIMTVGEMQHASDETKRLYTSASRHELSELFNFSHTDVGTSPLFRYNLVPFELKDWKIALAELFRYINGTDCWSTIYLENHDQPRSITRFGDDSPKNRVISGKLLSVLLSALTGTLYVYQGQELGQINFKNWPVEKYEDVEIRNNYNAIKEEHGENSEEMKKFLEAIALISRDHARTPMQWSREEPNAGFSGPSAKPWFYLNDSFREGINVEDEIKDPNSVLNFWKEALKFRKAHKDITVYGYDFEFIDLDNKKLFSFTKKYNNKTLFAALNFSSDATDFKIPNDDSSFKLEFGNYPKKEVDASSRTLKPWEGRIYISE

The first assay addresses Oligo-1,6-glucosidase IMA1 (Saccharomyces cerevisiae S288c) (UniProt P53051). Kind of assay: Ratio of acarbose IC50 to compound IC50 for bakers yeast alpha-glucosidase using p-nitrophenyl-alpha-D-glucopyranoside as substrate after 30 mins by spectrophotometry.
As for `O=C(O)CC1Oc2ccccc2-c2ccc3c(c21)C(=O)C(=O)N3Cc1ccc(C(F)(F)F)cc1` (configuration not stated), the Ratio IC50 was found to be 20.

For the next assay, the target named is Alpha-glucosidase MAL12 (Saccharomyces cerevisiae S288c, UniProt P53341). Kind of assay: Inhibition of bakers yeast alpha-glucosidase using p-nitrophenyl-alpha-D-glucopyranoside as substrate after 30 mins by spectrophotometry.
Sequence of Alpha-glucosidase MAL12 (P53341 whole entry): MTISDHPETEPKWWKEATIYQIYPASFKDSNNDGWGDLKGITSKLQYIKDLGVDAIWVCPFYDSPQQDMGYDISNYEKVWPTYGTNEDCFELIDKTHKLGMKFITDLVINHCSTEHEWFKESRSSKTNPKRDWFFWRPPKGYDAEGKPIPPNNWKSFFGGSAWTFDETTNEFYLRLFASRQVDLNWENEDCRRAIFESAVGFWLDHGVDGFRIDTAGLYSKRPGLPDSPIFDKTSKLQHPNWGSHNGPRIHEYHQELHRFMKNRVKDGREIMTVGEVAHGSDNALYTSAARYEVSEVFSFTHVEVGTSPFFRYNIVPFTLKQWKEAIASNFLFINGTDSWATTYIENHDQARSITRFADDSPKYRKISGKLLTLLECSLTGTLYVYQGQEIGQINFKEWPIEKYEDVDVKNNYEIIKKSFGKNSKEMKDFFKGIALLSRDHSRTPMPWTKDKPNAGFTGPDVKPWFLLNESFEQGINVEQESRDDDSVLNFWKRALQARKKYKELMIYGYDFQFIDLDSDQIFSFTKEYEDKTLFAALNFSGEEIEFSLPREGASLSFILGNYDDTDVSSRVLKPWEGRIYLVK
In turn, `COC(=O)CC1Oc2ccccc2-c2ccc3c(c21)C(=O)C(=O)N3C` (configuration not stated) registered an IC50 of 105 µM.

Consider `COC(=O)CC1Oc2ccccc2-c2ccc3c(c21)C(=O)C(=O)N3Cc1ccc(C(F)(F)F)cc1` (configuration not stated), for which the IC50 amounted to 15.7 µM.

Compound `COC(=O)CC1Nc2ccccc2-c2cc(C)c3c(c21)C(=O)C(=O)N3C` (configuration not stated) registered an IC50 of 117 µM.

The compound `COC(=O)CC1Oc2ccccc2-c2ccc3c(c21)C(=O)C(=O)N3Cc1ccc(OC)cc1` (configuration not stated) showed an IC50 of 32.3 µM.

`O=C(O)CC1Oc2ccccc2-c2ccc3c(c21)C(=O)C(=O)N3Cc1ccc(C(F)(F)F)cc1` (configuration not stated) had an IC50 of 4.8 µM.

Compound `COC(=O)CC1c2c(ccc3c2C(=O)C(=O)N3C)-c2ccccc2N1S(=O)(=O)c1ccc(F)cc1` (configuration not stated) gave an IC50 of 42.9 µM.

For the compound `O=C(O)CC1Oc2ccccc2-c2ccc3c(c21)C(=O)C(=O)N3Cc1ccccc1` (configuration not stated), inhibition was half-maximal at 16 µM (IC50).

Compound `COC(=O)CC1Oc2ccccc2-c2ccc3c(c21)C(=O)C(=O)N3Cc1ccccc1` (configuration not stated) showed a half-maximal inhibitory concentration (IC50) of 12.1 µM.

`CN1C(=O)C(=O)c2c1ccc1c2C(CC(=O)O)Oc2ccccc2-1` (configuration not stated) registered an IC50 of 29 µM.

Regarding `COC(=O)CC1Nc2ccccc2-c2ccc3c(c21)C(=O)C(=O)N3C` (configuration not stated), the IC50 amounted to 287 µM.

`COC(=O)CC1c2c(ccc3c2C(=O)C(=O)N3C)-c2ccccc2N1S(=O)(=O)c1ccccc1` (configuration not stated): inhibition was half-maximal at 77.1 µM (IC50).

`COC(=O)CC1Oc2ccccc2-c2cc(C)c3c(c21)C(=O)C(=O)N3Cc1ccccc1` (configuration not stated) yielded an IC50 of 39.3 µM.

The compound `CN1C(=O)C(=O)c2c1ccc1c2C(CC(=O)O)Nc2ccccc2-1` (configuration not stated) showed an IC50 of 187 µM.

On to `COC(=O)CC1Nc2ccccc2-c2ccc3c(c21)C(=O)C(=O)N3Cc1ccc(OC)cc1` (configuration not stated), for which half-maximal inhibition (IC50) required 45.3 µM.

Take `COC(=O)CC1Oc2ccccc2-c2cc(C)c3c(c21)C(=O)C(=O)N3C` (configuration not stated): it took 34.8 µM to reach half-maximal inhibition (IC50).

As to `COC(=O)CC1c2c(ccc3c2C(=O)C(=O)N3C)-c2ccccc2N1C(C)=O` (configuration not stated), the IC50 was more than 300 µM.

In the case of `COC(=O)CC1Nc2ccccc2-c2ccc3c(c21)C1(OCC(C)(C)CO1)C(=O)N3C` (configuration not stated), the IC50 is more than 300 µM.

As for `COC(=O)CC1c2c(ccc3c2C(=O)C(=O)N3C)-c2ccccc2N1C(=O)c1ccccc1` (configuration not stated), the midpoint of inhibition, the IC50, lay at 150 µM.

`COC(=O)CC1c2c(ccc3c2C(=O)C(=O)N3C)-c2ccccc2N1C(=O)c1ccc(Cl)cc1` (configuration not stated) displayed an IC50 of 75.9 µM.

`COC(=O)CC1c2c(ccc3c2C(=O)C(=O)N3C)-c2ccccc2N1C(=O)c1ccc(OC)cc1` (configuration not stated) showed an IC50 of 111 µM.

A further assay has as its target Oligo-1,6-glucosidase IMA1 (Saccharomyces cerevisiae S288c) (UniProt P53051). Description: Competitive inhibition of bakers yeast alpha-glucosidase using p-nitrophenyl-alpha-D-glucopyranoside as substrate at 0.5 to 5 uM after 30 mins by Lineweaver-Burk plot analysis.
For the compound `O=C(O)CC1Oc2ccccc2-c2ccc3c(c21)C(=O)C(=O)N3Cc1ccc(C(F)(F)F)cc1` (configuration not stated), the inhibition result was “Active”.
